Where no end group is shown, it is not given here.
Tests used:
AnkB_repeats WT = biological target: T1, AnkB_repeats WT (Homo sapiens, UniProt Q01484); assay: Fluorescence polarization binding to AnkB_repeats WT; conditions: deduced from ANK repeats WT and site mutants
T1 construct: thioredoxin-His6 (N); made in house; host or cells: Escherichia coli BL21 (DE3)
T1 sequence (Q01484 28-873 isoform Q01484-2): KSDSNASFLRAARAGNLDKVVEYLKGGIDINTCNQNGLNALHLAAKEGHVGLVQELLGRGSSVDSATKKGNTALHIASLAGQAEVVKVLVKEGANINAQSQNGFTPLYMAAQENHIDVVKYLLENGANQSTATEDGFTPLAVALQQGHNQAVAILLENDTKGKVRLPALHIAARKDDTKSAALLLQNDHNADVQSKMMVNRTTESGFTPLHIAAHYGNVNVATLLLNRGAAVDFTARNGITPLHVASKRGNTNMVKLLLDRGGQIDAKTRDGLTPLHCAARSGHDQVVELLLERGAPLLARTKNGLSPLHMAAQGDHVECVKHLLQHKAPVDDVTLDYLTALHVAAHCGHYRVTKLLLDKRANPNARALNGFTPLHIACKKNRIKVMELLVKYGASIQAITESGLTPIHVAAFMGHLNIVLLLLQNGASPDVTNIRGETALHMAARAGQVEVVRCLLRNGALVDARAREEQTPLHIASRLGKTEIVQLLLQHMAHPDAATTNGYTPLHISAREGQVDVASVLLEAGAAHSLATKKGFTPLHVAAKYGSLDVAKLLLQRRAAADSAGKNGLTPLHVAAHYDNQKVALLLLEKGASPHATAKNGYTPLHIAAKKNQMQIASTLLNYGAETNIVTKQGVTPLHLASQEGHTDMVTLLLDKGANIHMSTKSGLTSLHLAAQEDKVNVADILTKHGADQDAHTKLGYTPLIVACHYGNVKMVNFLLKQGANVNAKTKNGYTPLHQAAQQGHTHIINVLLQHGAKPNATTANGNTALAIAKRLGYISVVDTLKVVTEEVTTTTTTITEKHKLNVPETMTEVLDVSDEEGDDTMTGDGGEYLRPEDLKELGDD
Text: (§1) The coding sequences of AnkB_repeats (residues 28–873) were PCR amplified using the full-length human 220 kDa AnkB as the template. The coding sequences of the AnkR constructs, including AnkR_repeats (residues 42–853), and the full length AnkR C-terminal domain (residues 1529–1907), were PCR amplified from a mouse muscle cDNA library. The coding sequence of AnkG_repeats (residues 38–855) were PCR amplified using the full-length rat 190 kDa AnkG as the template. The fusion construct of AnkR_AS and AnkB_repeats was made by standard two-step PCR with a coding sequence of thrombin recognition residues ‘GSLVPRGS’ as the linker. This construct was used to crystallize and determine the complex structure. The same strategy was used in making other fusion constructs, including the Nav1.2_ABD-C/AnkB_repeats_R1–9 fusion construct containing residues 1103–1129 from mouse Nav1.2 and human AnkB residues 28–318 followed by a capping sequence corresponding to the αB of R24 (residues 814–822) and the AnkR_AS/AnkG_repeats fusion construct. For truncation mutations of ANK repeats constructs, the same capping sequence was added to the appropriate region of the C-terminus of each construct for protein stabilization. […]
Fluorescence assays were performed on a PerkinElmer LS-55 fiuorimeter equipped with an automated polarizer at 25°C. […]

AnkG R1-6 = biological target: T2, AnkG R1-6 (Rattus norvegicus, UniProt O70511, DEL222-823); assay: ITC binding to AnkG R1-6 truncation; conditions: 25°C, pH 7.5, one-site binding model
T2 construct: thioredoxin-His6 (N); made in house; host or cells: Escherichia coli BL21 (DE3)
T2 sequence (O70511 with tags, fused parts or gaps DEL222-823 limits assumed): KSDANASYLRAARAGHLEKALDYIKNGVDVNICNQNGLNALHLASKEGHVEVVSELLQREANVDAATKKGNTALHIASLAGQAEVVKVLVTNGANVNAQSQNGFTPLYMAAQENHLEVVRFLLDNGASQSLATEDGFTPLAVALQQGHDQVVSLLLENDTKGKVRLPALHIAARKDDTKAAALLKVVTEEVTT
Text: as §1, with “construct.” for “construct. For truncation mutations of ANK repeats constructs, the same capping sequence was added to the appropriate region of the C-terminus of each construct for protein stabilization.”
(§2) Isothermal titration calorimetry (ITC) measurements were carried out on a VP-ITC MicroCal calorimeter (MicroCal, Northampton, MA) at 25°C. […] The titration data were analyzed using the program Origin 7.0 and fitted by the one-site binding model.

AnkR_repeats = biological target: T3, AnkR_repeats (Mus musculus, UniProt Q02357); assay: ITC binding to AnkR_repeats; conditions: VP-ITC, 25°C, 50 mM Tris, 100 mM NaCl, 1 mM EDTA, 1 mM DTT, pH 7.5, one-site binding model, ND = no detectable binding
T3 construct: thioredoxin-His6 (N); made in house; host or cells: Escherichia coli BL21 (DE3)
T3 sequence (Q02357 5-816): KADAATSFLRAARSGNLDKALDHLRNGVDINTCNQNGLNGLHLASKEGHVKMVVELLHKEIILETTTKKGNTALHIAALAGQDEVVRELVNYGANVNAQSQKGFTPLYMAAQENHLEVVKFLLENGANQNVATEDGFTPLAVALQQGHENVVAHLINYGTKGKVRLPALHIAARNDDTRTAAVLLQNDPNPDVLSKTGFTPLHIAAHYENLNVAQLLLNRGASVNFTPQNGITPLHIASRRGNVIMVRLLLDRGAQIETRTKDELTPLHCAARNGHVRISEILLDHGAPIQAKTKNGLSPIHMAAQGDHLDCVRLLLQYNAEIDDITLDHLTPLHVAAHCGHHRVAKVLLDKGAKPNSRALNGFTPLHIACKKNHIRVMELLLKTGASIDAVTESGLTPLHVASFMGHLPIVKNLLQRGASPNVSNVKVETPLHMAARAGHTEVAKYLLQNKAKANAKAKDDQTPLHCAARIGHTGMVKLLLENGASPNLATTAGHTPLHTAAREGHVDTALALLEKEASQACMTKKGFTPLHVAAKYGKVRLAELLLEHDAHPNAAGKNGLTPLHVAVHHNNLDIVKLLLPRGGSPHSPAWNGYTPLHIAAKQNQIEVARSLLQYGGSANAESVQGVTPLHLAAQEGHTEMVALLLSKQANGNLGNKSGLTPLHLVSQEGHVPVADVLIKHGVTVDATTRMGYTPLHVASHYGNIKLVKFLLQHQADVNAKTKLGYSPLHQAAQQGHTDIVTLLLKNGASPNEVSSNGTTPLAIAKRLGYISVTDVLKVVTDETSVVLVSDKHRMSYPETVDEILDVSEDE
Text: as §1, with “construct.” for “construct. For truncation mutations of ANK repeats constructs, the same capping sequence was added to the appropriate region of the C-terminus of each construct for protein stabilization.”
as §2

[1] = biological target: T4, AnkG_repeats L366,F399,L432Q (Rattus norvegicus, UniProt O70511, F409Q/L376Q/L442Q); assay: ITC binding to AnkG_repeats LFL mutant (site 3); conditions: in words
T4 construct: thioredoxin-His6 (N); made in house; host or cells: Escherichia coli BL21 (DE3)
T4 sequence (O70511 38-855 L376Q/F409Q/L442Q): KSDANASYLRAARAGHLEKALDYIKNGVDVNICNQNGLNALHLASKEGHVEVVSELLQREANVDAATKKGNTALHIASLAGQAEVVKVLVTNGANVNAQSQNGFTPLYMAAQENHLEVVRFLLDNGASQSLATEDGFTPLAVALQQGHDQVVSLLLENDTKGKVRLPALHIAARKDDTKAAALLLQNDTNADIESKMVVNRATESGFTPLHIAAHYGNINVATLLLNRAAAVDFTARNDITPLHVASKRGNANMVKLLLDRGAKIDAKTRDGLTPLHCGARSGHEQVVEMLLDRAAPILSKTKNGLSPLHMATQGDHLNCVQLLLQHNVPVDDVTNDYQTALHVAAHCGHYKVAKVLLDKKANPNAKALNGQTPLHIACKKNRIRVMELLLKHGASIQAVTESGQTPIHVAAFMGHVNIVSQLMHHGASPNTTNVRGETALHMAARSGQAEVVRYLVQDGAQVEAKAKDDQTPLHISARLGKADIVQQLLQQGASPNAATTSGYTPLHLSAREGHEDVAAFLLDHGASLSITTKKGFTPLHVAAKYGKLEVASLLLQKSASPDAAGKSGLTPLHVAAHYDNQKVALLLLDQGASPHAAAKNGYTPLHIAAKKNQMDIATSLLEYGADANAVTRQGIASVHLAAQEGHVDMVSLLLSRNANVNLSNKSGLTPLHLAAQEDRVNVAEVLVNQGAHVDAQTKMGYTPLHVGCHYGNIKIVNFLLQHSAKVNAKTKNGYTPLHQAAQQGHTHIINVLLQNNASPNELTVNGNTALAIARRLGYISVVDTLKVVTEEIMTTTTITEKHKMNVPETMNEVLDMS
Text: (§3) We next examined the interactions of AnkG_repeats with Nav1.2 and Nfasc using the structure of the ANK repeats/AS complex to design mutations specifically affecting each predicted site. […] To probe the binding sites of Nav1.2 and Nfasc on AnkG, we constructed AnkG_repeat mutants with the corresponding hydrophobic residues in binding site 1 (Phe131 and Phe164 in R4 and R5, termed ‘FF’), site 2 (Ile267 and Leu300 in R8 and R9; ‘IL’), and site 3 (Leu366, Phe399, and Leu432 in R11, R12, and R13; ‘LFL’) substituted with Gln (Figure 3D), and examined their binding to the two targets. […] The mutations in site 3 weakened ANK repeat binding to both targets (Figure 3F, Figure 3—figure supplement 3 and Figure 3—figure supplement 4). […] This conclusion is further supported by the binding of the two targets to various AnkG_repeat truncation mutants (Figure 3F, Figure 3—figure supplement 3 and Figure 3—figure supplement 4).
(§4) The coding sequences of AnkB_repeats (residues 28–873) were PCR amplified using the full-length human 220 kDa AnkB as the template. […]
as §2

AnkG_repeats [2] = biological target: T5, AnkG_repeats (Rattus norvegicus, UniProt O70511); assay: ITC binding to AnkG_repeats WT; conditions: deduced from site mutants and truncations
T5 construct: thioredoxin-His6 (N); made in house; host or cells: Escherichia coli BL21 (DE3)
T5 sequence (O70511 38-855): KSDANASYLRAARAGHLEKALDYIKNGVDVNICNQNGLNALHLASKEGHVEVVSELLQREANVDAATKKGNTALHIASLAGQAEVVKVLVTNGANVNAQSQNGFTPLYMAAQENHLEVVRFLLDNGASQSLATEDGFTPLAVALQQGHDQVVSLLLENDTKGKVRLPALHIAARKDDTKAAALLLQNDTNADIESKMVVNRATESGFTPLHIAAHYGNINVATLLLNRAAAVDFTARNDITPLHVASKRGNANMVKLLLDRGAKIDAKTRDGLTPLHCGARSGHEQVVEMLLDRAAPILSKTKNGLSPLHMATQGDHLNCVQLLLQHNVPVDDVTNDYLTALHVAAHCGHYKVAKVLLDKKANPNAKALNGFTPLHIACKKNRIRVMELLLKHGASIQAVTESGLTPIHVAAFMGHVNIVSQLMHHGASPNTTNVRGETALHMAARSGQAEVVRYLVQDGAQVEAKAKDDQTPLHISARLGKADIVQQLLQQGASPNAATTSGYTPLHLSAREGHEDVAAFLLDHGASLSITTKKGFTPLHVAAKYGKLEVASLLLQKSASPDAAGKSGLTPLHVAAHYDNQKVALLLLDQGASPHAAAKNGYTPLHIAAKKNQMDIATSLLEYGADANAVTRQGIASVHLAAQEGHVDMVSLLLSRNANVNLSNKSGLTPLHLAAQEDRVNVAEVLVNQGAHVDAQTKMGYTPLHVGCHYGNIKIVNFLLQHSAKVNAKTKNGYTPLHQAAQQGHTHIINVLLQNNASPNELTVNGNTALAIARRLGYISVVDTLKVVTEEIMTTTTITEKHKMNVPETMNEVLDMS
Text: as §1, with “stabilization. Mouse Nav1.2 (NP_001092768.1) and mouse neurofascin (CAD65849.1) were used here for studying their interaction with ankyrins. Peptides for mouse KCNQ2 (NP_034741.2, residues 826–845) and mouse Cav1.3 (NP_083257.2, residues 2134–2166) were commercially synthesized. For simplicity, we used human 220 kDa AnkB for the amino acid numbering throughout the manuscript. For the corresponding point mutations made on AnkG_repeats, each residue number should be increased by 10. All point mutations were created using the Quick Change site-directed mutagenesis kit and confirmed by DNA sequencing.” for “stabilization.”
as §2

AnkG_repeats [3] = biological target: T5, AnkG_repeats; assay: Analytical gel filtration of AS-AnkG_repeats fusion with Nav1.2 or Nfasc ABD; assay type: binding; conditions: Superose 12 10/300 GL, 50 mM Tris, 100 mM NaCl, 1 mM EDTA, 1 mM DTT, pH 7.5
Text: as §1, with “stabilization. Mouse Nav1.2 (NP_001092768.1) and mouse neurofascin (CAD65849.1) were used here for studying their interaction with ankyrins.” for “stabilization.”

AnkG_repeats F131,F164Q = biological target: T6, AnkG_repeats F131,F164Q (Rattus norvegicus, UniProt O70511, F141Q/F174Q); assay: ITC binding to AnkG_repeats FF mutant (site 1); conditions: in words
T6 construct: thioredoxin-His6 (N); made in house; host or cells: Escherichia coli BL21 (DE3)
T6 sequence (O70511 38-855 F141Q/F174Q): as the sequence (O70511 38-855 L376Q/F409Q/L442Q) above, with F104Q, F137Q, Q339L, Q372F, Q405L counted along it
Text: as §3, §4, §2

AnkG_repeats I267,L300Q = biological target: T7, AnkG_repeats I267,L300Q (Rattus norvegicus, UniProt O70511, I277Q/L310Q); assay: ITC binding to AnkG_repeats IL mutant (site 2); conditions: in words
T7 construct: thioredoxin-His6 (N); made in house; host or cells: Escherichia coli BL21 (DE3)
T7 sequence (O70511 38-855 I277Q/L310Q): as the sequence (O70511 38-855 L376Q/F409Q/L442Q) above, with I240Q, L273Q, Q339L, Q372F, Q405L counted along it
Text: as §3, §4, §2

FITC-Cav1.3 peptide: mouse Cav1.3 (NP_083257.2, residues 2134–2166), commercially synthesized (NGDMGPISHRQDYELQDFGPGYSDEEPDPGREE; also: FITC label; UniProt Q99246 2134-2166, looked up, fragment)
ANK repeat sites used for binding (AnkB_repeats WT): primarily relies on site 2

TVTVPIAVGESDFENLNTEEFSSESDM [ABD-C (1103 - 1129)]
Kd (AnkG R1-6): 2300 ± 200 nM

CADQYWNEVAVIDAIPLAATEHDTMLEMSDMQVWSAGLTPSLVTAEDS [AnkR_AS]
Kd (AnkR_repeats): 360 ± 20 nM

SDDSLVDYGEGGEGQFNEDGSFIGQYTV [Nfasc_ABD]
effect of site 3 mutations on binding [1]: weakened | ANK repeat sites used for binding (AnkG_repeats [2]): sites 2 and 3 | complex formation with AS-AnkG_repeats fusion protein (AnkG_repeats [3]): No complex peaks formed | effect of site 1 mutations on binding (AnkG_repeats F131,F164Q): no impact | effect of site 2 mutations on binding (AnkG_repeats I267,L300Q): significantly weakened

Source: paper PMC4358367, “Structural basis of diverse membrane target recognitions by ankyrins” (eLife, 2014)
